Measurements published in patent US20220257592A1, “METHODS OF TREATING CANCER” (HOFFMANN-LA ROCHE INC., priority 2019, published 2022).
Marks after values point to notes of the source that are not given here.

Assays:
[1] = tested on: cancer having at least one molecular alteration in one or more of ALK, ROS1, TrkA, TrkB and TrkC; conditions: early clinical studies; cited from earlier work
[2] = human, in vivo
TrkC = TrkC (Homo sapiens, UniProt Q16288); conditions: cited from earlier work
TrkC, sequence (Q16288 32-839): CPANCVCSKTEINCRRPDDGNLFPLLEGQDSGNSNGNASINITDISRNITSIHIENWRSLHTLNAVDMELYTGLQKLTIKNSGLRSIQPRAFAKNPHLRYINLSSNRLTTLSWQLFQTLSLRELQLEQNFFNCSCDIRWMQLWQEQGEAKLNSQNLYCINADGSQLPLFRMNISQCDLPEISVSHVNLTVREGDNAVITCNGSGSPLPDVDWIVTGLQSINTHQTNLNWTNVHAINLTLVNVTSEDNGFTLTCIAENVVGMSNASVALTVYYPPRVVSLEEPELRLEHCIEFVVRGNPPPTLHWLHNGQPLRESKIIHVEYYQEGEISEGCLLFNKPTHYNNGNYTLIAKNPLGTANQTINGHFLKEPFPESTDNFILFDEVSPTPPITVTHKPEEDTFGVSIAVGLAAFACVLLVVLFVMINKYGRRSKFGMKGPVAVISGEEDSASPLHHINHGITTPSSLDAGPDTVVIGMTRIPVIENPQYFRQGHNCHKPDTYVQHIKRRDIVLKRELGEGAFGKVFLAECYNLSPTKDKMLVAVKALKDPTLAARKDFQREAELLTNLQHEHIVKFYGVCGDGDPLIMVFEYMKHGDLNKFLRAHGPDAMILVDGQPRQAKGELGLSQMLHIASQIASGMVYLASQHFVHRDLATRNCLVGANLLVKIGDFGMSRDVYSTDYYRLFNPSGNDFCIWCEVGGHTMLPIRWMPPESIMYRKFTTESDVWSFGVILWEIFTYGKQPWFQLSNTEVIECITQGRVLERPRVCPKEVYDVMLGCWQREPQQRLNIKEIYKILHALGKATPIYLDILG

For `CN1CCN(c2ccc(C(=O)Nc3n[nH]c4ccc(Cc5cc(F)cc(F)c5)cc34)c(NC3CCOCC3)c2)CC1` [Entrectinib, N-[5-(3,5-difluorobenzyl)-1H-indazol-3-yl]-4-(4-methyl-piperazin-1-yl)-2-(tetrahydro-pyran-4-ylamino)-benzamide], the “antitumor effects in patients” value [1] is given as “antitumor effects”, the “Dyspnea, Grade ≥3” value ([2]; both) is given as 6* % and the “Fatal event: completed suicide” value ([2]; both) is given as 0.3%. For the same compound, the “Fatal event: dyspnea” value ([2]; both) was 0.6%, the “Fatal event: pneumonia” value ([2]; both) was 0.6% and the “Fatal event: sepsis” value ([2]; both) was 0.6%. The “Fatal event: tumor lysis syndrome” value ([2]; both) was 0.3%, the “Lung infection, Grade ≥3” value [2] was 6* % and the “inhibition of TrkC tyrosine kinase” value (TrkC) was “potent inhibitor”.
